Assay: Preliminary study of desmopressin preparations with various pH values, 6 weeks at 50° C. in glass flasks
Format: physicochemical
Details: pH 1.0-7.0 tested, desmopressin content and sum of G1-G4
Procedure: Desmopressin preparations with various pH values (1.0, 2.0, 3.0, 4.0, 5.0, 6.0, and 7.0) were investigated for these preliminary studies. These solutions were stored in glass flasks for 6 weeks at 50° C. and then analysed in the usual way with the use of analytical columns. After 6 weeks the pH values of the seven solutions were unchanged.

pH region in which desmopressin is most stable: ~5.0
Compound: NC(=O)CC[C@@H]1NC(=O)[C@H](Cc2ccccc2)NC(=O)[C@H](Cc2ccc(O)cc2)NC(=O)CCSSC[C@@H](C(=O)N2CCC[C@H]2C(=O)N[C@H](CCCN=C(N)N)C(=O)NCC(N)=O)NC(=O)[C@H](CC(N)=O)NC1=O [desmopressin, 1-deamino-8-D-arginine-vasopressin]

— patent publication US20030119728A1, “Stable, nasally, orally or sublingually applicable pharmaceutical preparation” (priority 2000, published 2003)
